Experimental data taken from ChEMBL document CHEMBL1143887, “Novel amino linkers enabling efficient labeling and convenient purification of amino-modified oligonucleotides” (Bioorg Med Chem, 2008).

Assay: Dissociation constant, pKa of the compound
Format: physicochemical

Work on `NC[C@H](COCc1cccc2ccccc12)OC(=O)NCCCCCCO` yielded a pKa of 8.9.
